Data taken from patent US9809822B2 (priority 2013, dated 2017).
Several values for one entry are separate records, joined by “and”; a condition that tells them apart may be missing. Identical values can stand only once.

Assays:
[1] = C14 hydroxyl replaced by electron withdrawing group; background statement; cited from earlier work
[2] = tested on: acute lymphoblastic leukemia T-cells (CCRF-CEM); assay: Inhibition of triptolide-SGC8C conjugate on the growth of cancer cells in vitro (absorbance, MTT); assay type: cell-based; conditions: replicates, listed as TP
Method: Cell lines: acute lymphoblastic leukemia T-cells (CCRF-CEM) and hepatocyte (L-02).
Fetal bovine serum and two antibiotics were added into the above media so as to form a final culture medium with a final content of 10% and 1%. Cells were incubated in an incubator at 37° C. and with 5% CO2. Growth conditions of the cells were constantly observed and cell counting was performed, and all the experiments were carried out on cells in logarithmic growth phase.
Study on anti-cancer activity: acute lymphoblastic leukemia T-cells (CCRF-CEM) and liver cells (L-02) were uniformly seeded into a 96-well plate in a low density (1×10^3˜1×10^4, depending on the specific cell lines) and were placed in an incubator overnight for adhering, the used medium was replaced by a serum free medium containing drug. […] The cells were then cultured in the incubator at 37° C. and with 5% CO2. Cell activities were measured by MTT. The operations were repeated for 3 times.

[3] = tested on: BxPC-3 pancreatic cancer cells; assay: Inhibition of triptolide-AS1411 conjugate on the growth of pancreatic cancer cells in vitro (absorbance, MTT); assay type: cell-based, human; conditions: for Absorbance (24 h) / Absorbance (48 h): replicate wells
Method: 5 pancreatic cancer cell lines (MiaPaCa-2, PANC-1, BxPC-3, SW1990 and ASPC-1) used in the experiments were all purchased from Shanghai Cell Bank.
Fetal bovine serum and two antibiotics were added into the above media so as to form a final culture medium with a final content of 10% and 1%. Cells were incubated in an incubator at 37° C. and with 5% CO2.
Pancreatic cancer cells (MiaPaCa-2, PANC-1, BxPC-3, SW1990 and ASPC-1) were uniformly seeded into a 96-well plate with a low density (1×10^3˜1×10^4, depending on the specific cell lines, and the conditions were referred to Shanghai Cell Bank). After placed in incubator for adhering overnight, the used medium was replaced by a serum free medium containing drug. […] The cells were then incubated in the incubator at 37° C. and with 5% CO2. Cell activities were measured by MTT. The operation was performed for 4 times.

[4] = background statement; cited from earlier work
cancer cells = conditions: background statement; cited from earlier work
[5] = parameters: species or system female nude mice; conditions: female, nude, mouse, in vivo
Description: BxPC-3 cells in logarithmic growth phase were used.
Samples A and B in 2.2.2 were used.

SMILES	cytotoxicity compared with TP [1]	Absorbance (CCRF-CEM) ([2]; 25 nM)	Absorbance (CCRF-CEM) ([2]; 50 nM)	Absorbance (CCRF-CEM) ([2]; 100 nM)	Absorbance (CCRF-CEM) ([2]; 200 nM)	Absorbance (24 h) ([3]; 25 nM)	Absorbance (48 h) ([3]; 25 nM)	Absorbance (24 h) ([3]; 50 nM)	Absorbance (48 h) ([3]; 50 nM)	Absorbance (24 h) ([3]; 100 nM)	Absorbance (48 h) ([3]; 100 nM)	Absorbance (24 h) ([3]; 200 nM)	Absorbance (48 h) ([3]; 200 nM)	effect on proliferation of pancreatic cancer cells ([3]; compared with blank references, concentration range 50 nM-200 nM, time and dose dependent)	solubility in water [4]	concentration that effectively inhibits the growth of the cancer cells (cancer cells) [ng/mL]	time after administration at which drug concentration in blood reaches a maximum [5] [h]
CC(C)[C@]12O[C@H]1[C@@H]1O[C@]13[C@]1(O[C@H]1C[C@H]1C4=C(CC[C@@]13C)C(=O)OC4)[C@@H]2F [Compound M-1]	greater than TP																
CC(C)[C@]12O[C@H]1[C@@H]1O[C@]13[C@]1(O[C@H]1C[C@H]1C4=C(CC[C@@]13C)C(=O)OC4)[C@H]2F [Compound M-2]	greater than TP																
CC(C)[C@]12O[C@H]1[C@@H]1O[C@]13[C@]1(O[C@H]1C[C@H]1C4=C(CC[C@@]13C)C(=O)OC4)[C@@H]2O [Triptolide]		0.7555 and 0.7582 and 0.755	0.5502 and 0.5441 and 0.5447	0.2608 and 0.2717 and 0.2802	0.1902 (2×) and 0.18	0.745 and 0.764 and 0.718 and 0.690	0.296 and 0.322 (2×) and 0.317	0.436 and 0.430 and 0.454 and 0.424	0.219 and 0.223 and 0.231 and 0.220	0.393 and 0.397 and 0.403 and 0.364	0.211 and 0.206 and 0.223 and 0.212	0.365 and 0.366 and 0.402 and 0.399	0.200 and 0.218 and 0.222 and 0.213	significantly inhibit	not soluble in water	2 to 10	0.5
